The nature of data set [1]: physchem. Particulars: aqueous with cosolvent or surfactant or cyclodextrin, thermodynamic from solid, Solubility in KOH 2 mol · L^−1 and ionic liquid: Anthraquinone.
Description: (§1) 100 mg of the targeted organic compound are introduced into a flask as well as the desired quantity of ionic liquid to be tested. A basic aqueous solution is added in portions of 0.1 mL until a solution is obtained. The maximum concentration is then determined in accordance with the following formula:
Cmax=[mcompound/Mcompound]/V
(§2) Cmax is the maximum concentration of given organic molecule in mol·L^−1, mcompound is the mass of the introduced organic molecule (in g), Mcompound is the molar mass of this organic molecule (in g·mol^−1) and V is the volume of added aqueous solution (in L).
(§3) The quinone is introduced into a volumetric flask (the quantity is dependent on the targeted concentration, generally between 0.1 and 0.5 M). The liquid is added (the quantity is dependent on the solubilising power of the ionic liquid, in stoichiometric quantity in relation to the quinone). An aqueous solution containing hydroxide ions at a concentration between 0.1 and 5 M is added until the flask is full.
Data set [2] can be described thus: Maximum solubility / solubilisation of organic compounds in ionic liquid/basic aqueous solution mixtures (flask method). The conditions noted are these: for solubility: thermodynamic from solid; for natural solubility in a solution of pH=14: pH=14, without ionic liquid; for concentration of solution obtained: KOH 2M.
Description: as §1
Cmax=[mcompound/Mcompound]/V
as §2, §3
The nature of data set [3]: Cyclic voltammetry of electrolytic solutions. Particulars: vitreous carbon electrode. It is filed as physicochemical. Here is the method:
The action of the ionic liquids on the solubility of the organic molecules can be observed by a simple electrochemical analysis. The method used is voltammetry with linear variation of the potential. The result is the plotting of a curve i=f(E) of which the value of the oxidation or reduction current of the electroactive molecule is proportional to its concentration in solution. The electrochemical analyses are performed in an electrochemical cell of which the volume is 40 ml. The volume of the solutions introduced into the electrochemical cell is 10 ml.
In order to perform the analyses, three electrodes immersed in the solution are used: • Working electrode. The working electrode is the location of the studied electrochemical reaction. In this instance, an electrode which is made of vitreous carbon and has a surface of 3 mm diameter, or a nickel electrode of 5 mm diameter was used. The electrochemical reactions are often sensitive to the nature of the electrodes. For example, depending on their nature, some electrodes may passivate and others may not, compared to the same electrochemical system in solution. • Counter electrode. The counter electrode enables the passage of the current in the solution between itself and the working electrode. This electrode must be very stable (for example must not dissolve in the event of oxidation). […]

Setting [4] is: aqueous KOH solution with ionic liquid, aqueous with cosolvent or surfactant or cyclodextrin, Solubility in KOH 2 mol · L^−1 and ionic liquid: Anthraquinone, KOH 2 mol·L^−1, ionic liquid (I-a), (I-b) or (I-c) 0.5 mol·L^−1.
Setting [5] is: aqueous KOH solution without ionic liquid, aqueous buffer, Solubility in KOH 2 mol · L^−1, aqueous KOH 2 mol·L^−1, without ionic liquid.

Values after ≈ are worked out from the molar mass of the structure shown. Read-outs that look alike come from different tables or passages of the source. Some results are limits rather than exact numbers.

One may read the solubility as the concentration that dissolves in the medium under given conditions.

In the case of `O=C1c2ccccc2C(=O)c2ccccc21`, the “natural solubility in a solution of pH=14” value (from here on “natural solubility”) is recorded as “very weak”. Further, the solubility in data set [1] was below 100 mM.

For the compound `O=C1c2cccc(O)c2C(=O)c2cccc(O)c21`, the values for the solubility in data set [2] (setting [4]) and in data set [2] (setting [5]) were 500 mM (≈ 120 mg/mL) and 100 mM (≈ 24 mg/mL), respectively.

In the case of `O=C1c2ccccc2C(=O)c2cc(S(=O)(=O)O)ccc21`, the values for the solubility in data set [2] (setting [4]) and in data set [2] (setting [5]) were 100 mM (≈ 28.8 mg/mL) and below 100 mM, respectively. The “natural solubility” value in data set [2] is “very weak”.

On to `Nc1cccc2c1C(=O)c1ccccc1C2=O`, for which the solubility in data set [2] (setting [4]) is 100 mM (≈ 22.3 mg/mL); in data set [2] (setting [5]), below 100 mM. Further, in data set [2], the “natural solubility” value is listed as “very weak”.

As to `O=C1c2ccccc2C(=O)c2c1cc(S(=O)(=O)[O-])c(O)c2O.[Na+]` [Alizarin redS, Alizarin Red S], the “increase in the intensity of the oxidation peak and the reduction peak (factor)” value in data set [3] (0.6 M ionic liquid vs none, 100 mV·s^−1 (FIG. 1)) stood at 15. The peak current intensity result in data set [3] (0.6 mol·L^−1 with 0.6 mol·L^−1 ionic liquid, 100 mV·s^−1) was “greater than 60 mA·cm^−2”. Also, the solubility in data set [2] (aqueous KOH solution with ionic liquid, aqueous with cosolvent or surfactant or cyclodextrin, Solubility in KOH 2 mol · L^−1 and ionic liquid: Anthraquinone, KOH 2 mol·L^−1, ionic liquid (I-a), (I-b) or (I-c) 0.6 mol·L^−1) was 600 mM; in data set [2] (aqueous KOH solution with ionic liquid, aqueous with cosolvent or surfactant or cyclodextrin, solubility in the presence of ionic liquid, KOH 2 mol·L^−1, 0.6 M ionic liquid), 600 mM; in data set [2] (setting [5]) it was 200 mM; in data set [2] (aqueous KOH solution without ionic liquid, aqueous buffer, solubility in a solution of KOH 2 mol·L^−1, KOH 2 mol·L^−1, without ionic liquid) it was around 200 mM.

Take `O=C1c2ccccc2C(=O)c2c1ccc(O)c2O` [alizarin, Alizarin]: the “concentration of solution obtained” value in data set [2] (1,3-dimethylimidazolium methyl sulfate 1:1 with alizarin) is given as “greater than 0.5 M”; in data set [2] (1,3-dimethylimidazolium methyl sulfate less than 1:1 to alizarin, precipitate still visible), below 0.5 M; in data set [2] (N-methylisoquinolinium methyl sulfate 1:1 with alizarin, precipitate still visible) it was below 0.5 M; in data set [2] (alizarin/1,3-dimethylimidazolium methyl sulfate/N-methylisoquinolinium methyl sulfate 1:0.5:0.5), 0.8 M; in data set [2] (either isolated ionic liquid, alizarin/ionic liquid 1:0.5, no solution obtained), below 0.5 M. For the same compound, the “concentration in aqueous solution of KOH 2 M with ionic liquid” value in data set [2] (KOH 2 M, addition of 10% (vol.) ionic liquid) is given as 0.5 M. Besides, the solubility in data set [2] (setting [4]) turned out to be 500 mM (≈ 120 mg/mL); in data set [2] (aqueous KOH solution with ionic liquid, aqueous with cosolvent or surfactant or cyclodextrin, concentration solubilised in aqueous solution of KOH 2 M with ionic liquid, KOH 2 M, 5% (vol.) ionic liquid), 250 mM (≈ 60.1 mg/mL); in data set [2] (setting [5]) it was 100 mM (≈ 24 mg/mL); in data set [2] (aqueous KOH solution without ionic liquid, aqueous buffer, soluble concentration in aqueous solution of KOH 2 M, KOH 2 M, without ionic liquid (saturation)), 100 mM (≈ 24 mg/mL).

The record behind these values is US20190148754A1, “USE OF IONIC LIQUIDS AS AN ADJUVANT IN ELECTROCHEMISTRY” (UNIVERSITE DE RENNES 1, priority 2016, published 2019).
